Experimental data reported in PubChem BioAssay AID1259407 (Chemical Carcinogenesis Research Information System (CCRIS), 2018).
Activity calls are given as the source filed them. The rule behind the calls is not given here.

Tested on: CCRIS mutagenicity, Ames/micronucleus/aberration tests
Test: CCRIS mutagenicity studies
[1] = Test System: AMES SALMONELLA TYPHIMURIUM, Strain/Indicator: TA98, Metabolic Activation: NONE, Method: PREINCUBATION
[2] = Test System: AMES SALMONELLA TYPHIMURIUM, Strain/Indicator: TA100, Metabolic Activation: NONE, Method: PREINCUBATION
[3] = Test System: AMES SALMONELLA TYPHIMURIUM, Strain/Indicator: TA1535, Metabolic Activation: NONE, Method: PREINCUBATION
[4] = Test System: AMES SALMONELLA TYPHIMURIUM, Strain/Indicator: TA98, Metabolic Activation: RAT LIVER S-9, PHENOBARBITAL AND BETA-NAPHTHOFLAVONE, Method: PREINCUBATION
[5] = Test System: AMES SALMONELLA TYPHIMURIUM, Strain/Indicator: TA100, Metabolic Activation: RAT LIVER S-9, PHENOBARBITAL AND BETA-NAPHTHOFLAVONE, Method: PREINCUBATION
[6] = Test System: AMES SALMONELLA TYPHIMURIUM, Strain/Indicator: TA1535, Metabolic Activation: RAT LIVER S-9, PHENOBARBITAL AND BETA-NAPHTHOFLAVONE, Method: PREINCUBATION
[7] = Test System: AMES SALMONELLA TYPHIMURIUM, Strain/Indicator: TA1537, Metabolic Activation: NONE, Method: PREINCUBATION
[8] = Test System: AMES SALMONELLA TYPHIMURIUM, Strain/Indicator: TA1537, Metabolic Activation: RAT LIVER S-9, PHENOBARBITAL AND BETA-NAPHTHOFLAVONE, Method: PREINCUBATION

COc1ccc2c3c1O[C@H]1[C@@H](O)C=C[C@H]4[C@@H](C2)N(C)CC[C@@]341
mutagenic call (Test System: AMES SALMONELLA TYPHIMURIUM, Strain/Indicator: TA97, Metabolic Activation: HAMSTER, LIVER, S-9, AROCLOR 1254 (10 OR 30%), Method: PREINCUBATION): inactive; negative
mutagenic call (Test System: AMES SALMONELLA TYPHIMURIUM, Strain/Indicator: TA97, Metabolic Activation: NONE, Method: PREINCUBATION): inactive; negative
mutagenic call (Test System: AMES SALMONELLA TYPHIMURIUM, Strain/Indicator: TA97, Metabolic Activation: RAT, LIVER, S-9, AROCLOR 1254 (10 OR 30%), Method: PREINCUBATION): inactive; negative
mutagenic call (Test System: AMES SALMONELLA TYPHIMURIUM, Strain/Indicator: TA98, Metabolic Activation: HAMSTER, LIVER, S-9, AROCLOR 1254 (10 OR 30%), Method: PREINCUBATION): inactive; negative
mutagenic call [1]: inactive; negative
mutagenic call (Test System: AMES SALMONELLA TYPHIMURIUM, Strain/Indicator: TA98, Metabolic Activation: RAT, LIVER, S-9, AROCLOR 1254 (10 OR 30%), Method: PREINCUBATION): inactive; negative
mutagenic call (Test System: AMES SALMONELLA TYPHIMURIUM, Strain/Indicator: TA100, Metabolic Activation: HAMSTER, LIVER, S-9, AROCLOR 1254 (10 OR 30%), Method: PREINCUBATION): inactive; negative
mutagenic call [2]: inactive; negative
mutagenic call (Test System: AMES SALMONELLA TYPHIMURIUM, Strain/Indicator: TA100, Metabolic Activation: RAT, LIVER, S-9, AROCLOR 1254 (10 OR 30%), Method: PREINCUBATION): inactive; negative
mutagenic call (Test System: AMES SALMONELLA TYPHIMURIUM, Strain/Indicator: TA1535, Metabolic Activation: HAMSTER, LIVER, S-9, AROCLOR 1254 (10 OR 30%), Method: PREINCUBATION): inactive; negative
mutagenic call [3]: inactive; negative
mutagenic call (Test System: AMES SALMONELLA TYPHIMURIUM, Strain/Indicator: TA1535, Metabolic Activation: RAT, LIVER, S-9, AROCLOR 1254 (10 OR 30%), Method: PREINCUBATION): inactive; negative

O=S(=O)(O)c1cc(S(=O)(=O)O)c2cc(O)ccc2c1
mutagenic call [1]: inactive; negative
mutagenic call [4]: inactive; negative
mutagenic call (Test System: AMES SALMONELLA TYPHIMURIUM, Strain/Indicator: TA98, Metabolic Activation: RAT, LIVER, S-9, PHENOBARBITAL, Method: PREINCUBATION): inactive; negative
mutagenic call [2]: inactive; negative
mutagenic call [5]: inactive; negative
mutagenic call (Test System: AMES SALMONELLA TYPHIMURIUM, Strain/Indicator: TA100, Metabolic Activation: RAT, LIVER, S-9, PHENOBARBITAL, Method: PREINCUBATION): inactive; negative
mutagenic call [3]: inactive; negative
mutagenic call [6]: inactive; negative
mutagenic call [7]: inactive; negative
mutagenic call [8]: inactive; negative
mutagenic call (Test System: AMES SALMONELLA TYPHIMURIUM, Strain/Indicator: TA1538, Metabolic Activation: NONE, Method: PREINCUBATION): inactive; negative
mutagenic call (Test System: AMES SALMONELLA TYPHIMURIUM, Strain/Indicator: TA1538, Metabolic Activation: RAT LIVER S-9, PHENOBARBITAL AND BETA-NAPHTHOFLAVONE, Method: PREINCUBATION): inactive; negative
mutagenic call (Test System: E.COLI, Strain/Indicator: WP2UVRA, Metabolic Activation: NONE, Method: PREINCUBATION): inactive; negative
mutagenic call (Test System: E.COLI, Strain/Indicator: WP2UVRA, Metabolic Activation: RAT LIVER S-9, PHENOBARBITAL AND BETA-NAPHTHOFLAVONE, Method: PREINCUBATION): inactive; negative

Cc1ccc2[nH]c3c(C)ccc(C)c3c2c1
mutagenic call (Test System: AMES SALMONELLA TYPHIMURIUM, Strain/Indicator: TA98, Metabolic Activation: NONE, Method: STANDARD PLATE): inactive; negative
mutagenic call (Test System: AMES SALMONELLA TYPHIMURIUM, Strain/Indicator: TA98, Metabolic Activation: RAT LIVER S-9, AROCLOR 1254, Method: STANDARD PLATE): active; positive
mutagenic call (Test System: AMES SALMONELLA TYPHIMURIUM, Strain/Indicator: TA100, Metabolic Activation: NONE, Method: STANDARD PLATE): inactive; negative
mutagenic call (Test System: AMES SALMONELLA TYPHIMURIUM, Strain/Indicator: TA100, Metabolic Activation: RAT LIVER S-9, AROCLOR 1254, Method: STANDARD PLATE): inactive; negative

COc1ccc(-c2noc(CC(=O)O)c2-c2ccc(OC)cc2)cc1
mutagenic call [1]: inactive; negative
mutagenic call (Test System: AMES SALMONELLA TYPHIMURIUM, Strain/Indicator: TA98, Metabolic Activation: RAT, LIVER, S-9, PHENOBARBITAL AND 5,6-BENZOFLAVONE, Method: PREINCUBATION): inactive; negative
mutagenic call [2]: inactive; negative
mutagenic call (Test System: AMES SALMONELLA TYPHIMURIUM, Strain/Indicator: TA100, Metabolic Activation: RAT, LIVER, S-9, PHENOBARBITAL AND 5,6-BENZOFLAVONE, Method: PREINCUBATION): inactive; negative
mutagenic call [3]: inactive; negative
mutagenic call (Test System: AMES SALMONELLA TYPHIMURIUM, Strain/Indicator: TA1535, Metabolic Activation: RAT, LIVER, S-9, PHENOBARBITAL AND 5,6-BENZOFLAVONE, Method: PREINCUBATION): inactive; negative
mutagenic call [7]: inactive; negative
mutagenic call (Test System: AMES SALMONELLA TYPHIMURIUM, Strain/Indicator: TA1537, Metabolic Activation: RAT, LIVER, S-9, PHENOBARBITAL AND 5,6-BENZOFLAVONE, Method: PREINCUBATION): inactive; negative
mutagenic call (Test System: E. COLI, Strain/Indicator: WP2 UVRA, Metabolic Activation: NONE, Method: PREINCUBATION): inactive; negative
mutagenic call (Test System: E. COLI, Strain/Indicator: WP2 UVRA, Metabolic Activation: RAT, LIVER, S-9, PHENOBARBITAL AND 5,6-BENZOFLAVONE, Method: PREINCUBATION): inactive; negative

N=C(N)S(=O)O
mutagenic call [1]: inactive; negative
mutagenic call [4]: inactive; negative
mutagenic call [2]: inactive; negative
mutagenic call [5]: inactive; negative
mutagenic call [3]: active; positive
mutagenic call [6]: active; positive
mutagenic call [7]: inactive; negative
mutagenic call [8]: inactive; negative
mutagenic call (Test System: E.COLI, Strain/Indicator: WP2UVRA\PKM101, Metabolic Activation: NONE, Method: PREINCUBATION): inactive; negative
mutagenic call (Test System: E.COLI, Strain/Indicator: WP2UVRA\PKM101, Metabolic Activation: RAT LIVER S-9, PHENOBARBITAL AND BETA-NAPHTHOFLAVONE, Method: PREINCUBATION): inactive; negative

CC(=O)OCN(N=O)c1ccccc1
mutagenic call (Test System: AMES SALMONELLA TYPHIMURIUM, Strain/Indicator: TA1537, Metabolic Activation: NONE, Method: LIQUID INCUBATION): active; positive

Cc1ncc(CO)c(CO)c1O
mutagenic call (Test System: AMES SALMONELLA TYPHIMURIUM, Strain/Indicator: TA97A, Metabolic Activation: NONE, Method: PREINCUBATION): inactive; negative
mutagenic call (Test System: AMES SALMONELLA TYPHIMURIUM, Strain/Indicator: TA97A, Metabolic Activation: RAT, LIVER, S-9, AROCLOR 1254, Method: PREINCUBATION): inactive; negative
mutagenic call (Test System: AMES SALMONELLA TYPHIMURIUM, Strain/Indicator: TA102, Metabolic Activation: NONE, Method: PREINCUBATION): inactive; negative
mutagenic call (Test System: AMES SALMONELLA TYPHIMURIUM, Strain/Indicator: TA102, Metabolic Activation: RAT, LIVER, S-9, AROCLOR 1254, Method: PREINCUBATION): inactive; negative
